The values below come from ChEMBL document CHEMBL2385066, “Cationic porphyrin-quinoxaline conjugate as a photochemically triggered novel cytotoxic agent” (Bioorg Med Chem Lett, 2013).

Assay [1] deals with A549. The experiment in a line: Phototoxicity against human A549 cells incubated for 24 hrs followed by exposure to visible-light for 10 mins measured after 24 hrs by WST assay. It counts as functional, cell-based.
Assay [2] concerns A549. The experiment in a line: Phototoxicity against human A549 cells incubated for 24 hrs followed by UV-irradiation for 10 mins measured after 24 hrs by WST assay. The format is functional, cell-based.
Assay [3] relates to Escherichia coli. The assay is described as follows: Induction of Escherichia coli pBR322 DNA cleavage assessed as conversion of supercoiled form to nicked circular form at 50 uM incubated for 30 mins followed by UV-irradiation for 1 to 60 mins by agarose gel electrophoretic analysis.
Assay [4] deals with DNA. The experiment in a line: Binding affinity to calf thymus DNA. The format is nucleic-acid assay. The settings on record: Bos taurus.
The test system of assay [5] is Escherichia coli. The experiment in a line: Induction of Escherichia coli pBR322 DNA cleavage assessed as conversion of supercoiled form to nicked circular form at 50 uM incubated for 30 mins followed by exposure to visible-light for 1 to 60 mins by agarose gel electrophoretic analysis.
Assay [6] concerns DNA. The assay is described as follows: Binding affinity to calf thymus DNA assessed as red shift in Soret region at 2 uM by UV-vis absorption titration. The format is nucleic-acid assay. The settings on record: Bos taurus.
Assay [7] deals with DNA. The experiment in a line: Binding affinity to calf thymus DNA assessed as decrease in fluorescence intensity at 2 uM by spectroscopic analysis. It counts as nucleic-acid assay. The settings on record: Bos taurus.
For assay [8], the system named is A549. The assay is described as follows: Ratio of TMPyP IC50 to compound IC50 for human A549 cells incubated for 24 hrs followed by exposure to visible-light for 10 mins measured after 24 hrs by WST assay. It counts as functional.
Assay [9] relates to DNA. The assay is described as follows: Binding affinity to calf thymus DNA assessed as hypochromicity at 2 uM by UV-vis absorption titration relative to control. It counts as nucleic-acid assay. The settings on record: Bos taurus.
Assay [10] concerns DNA. The experiment in a line: Binding affinity to calf thymus DNA assessed as blue shift at 2 uM by fluorescence spectroscopic analysis. The format is nucleic-acid assay. The settings on record: Bos taurus.
Where [11] appears, read: Homo sapiens, A549, light or radiation study.

The source made the active and inactive calls. The rule behind the calls is not given here.

With `O=C(Nc1ccc(-c2c3nc(c(-c4ccncc4)c4ccc([nH]4)c(-c4ccncc4)c4nc(c(-c5ccncc5)c5ccc2[nH]5)C=C4)C=C3)cc1)c1cnc2ccccc2n1`, the half-inhibitory concentration (IC50) in the assay on A549 [1] (setting [11]) was 180 nM; in the assay on A549 [2] (setting [11]), 170 nM.
`C1=Cc2nc1c(-c1ccccc1)c1nc(c(-c3ccccc3)c3ccc([nH]3)c(-c3ccccc3)c3ccc([nH]3)c2-c2ccccc2)C=C1` [TETRAPHENYLPORPHYRIN]: the IC50 in the assay on A549 [1] (setting [11]) and with A549 [2] (setting [11]) was greater than 20000 nM in each case.
As to `O=C(Nc1ccc(-c2c3nc(c(-c4ccccc4)c4ccc([nH]4)c(-c4ccccc4)c4nc(c(-c5ccccc5)c5ccc2[nH]5)C=C4)C=C3)cc1)c1cnc2ccccc2n1`, the result with Escherichia coli [3] was Active. Further, the IC50 in the assay with A549 [1] (setting [11]) and with A549 [2] (setting [11]) was greater than 20000 nM throughout. The K in the assay with DNA [4] worked out at 1.98 ×10⁵ /M. Moreover, in the assay with Escherichia coli [5], the result was inactive.
With `C[n+]1ccc(-c2c3nc(c(-c4cc[n+](C)cc4)c4ccc([nH]4)c(-c4cc[n+](C)cc4)c4nc(c(-c5ccc(NC(=O)c6cnc7ccccc7n6)cc5)c5ccc2[nH]5)C=C4)C=C3)cc1.[I-].[I-].[I-]`, the outcome with Escherichia coli [3], in the assay on DNA [6], in the assay with DNA [7], in the assay with Escherichia coli [5] and in the assay with DNA [10] was Active. Moreover, the IC50 worked out at 60 nM in the assay with A549 [1] (a549) and 160 nM with A549 [2] (a549). Also, in the assay on A549 [8], the “Ratio IC50” value was found to be 5. The Activity with DNA [9] was 39%. The same compound showed a K in the assay on DNA [4] of 1.26 ×10⁶ /M.
As for `C[n+]1ccc(-c2c3nc(c(-c4cc[n+](C)cc4)c4ccc([nH]4)c(-c4cc[n+](C)cc4)c4ccc([nH]4)c(-c4cc[n+](C)cc4)c4nc2C=C4)C=C3)cc1` [TMPYP4], the results for the concentration for half-maximal inhibition (IC50) in the assay with A549 [1] (setting [11]) and in the assay on A549 [2] (setting [11]) were 300 nM and 1240 nM, respectively. In the assay with DNA [4], this compound displayed a K of 2.5 ×10⁶ /M.
